The subject of experiment [1] is Pseudomonas aeruginosa UI-18: Wild-type (PA-7). Put plainly: MIC determination (CLSI), PA-7. The format is cell-based. The note with it: Pseudomonas aeruginosa UI-18 wild-type; overnight incubation; lower of duplicate values; read-out: PA-7 (MIC). Here is the method: (§1) The in vitro antibacterial activity of compounds described in the Examples was evaluated by minimum inhibitory concentration (MIC) testing according to Clinical and Laboratory Standards Institute (CLSI) Guidelines. See: Clinical and Laboratory Standards Institute. Methods for Dilution Antimicrobial Susceptibility Tests for Bacteria that Grow Aerobically; Approved Standard-Eighth Edition. CLSI document M7-A8 [ISBN 1-56238-689-1]. Clinical and Laboratory Standards Institute, 940 West Valley Road, Suite 1400, Wayne, Pa. 19087-1898 USA, 2006; also Clinical and Laboratory Standards Institute. Performance Standards for Antimicrobial Susceptibility Testing; Twentieth Informational Supplement. CLSI document M100-S20 [ISBN1-56238-716-2]. Clinical and Laboratory Standards Institute.
(§2) The MIC determination is a standard laboratory method for evaluating the antibacterial activity of a compound. The MIC represents the lowest drug concentration that inhibits visible growth of bacteria following overnight incubation. […] Typically, the drug concentration range is broken down into 2-fold increments (e.g. 0.06 μg/mL, 0.12 μg/mL. 0.25 μg/mL, 0.50 μg/mL, 1.0 μg/mL, etc.) and the various drug concentrations are all individually incubated overnight with approximately the same number of bacteria. The MIC is then determined by visually inspecting the drug effect at each concentration, and identifying the lowest drug concentration that has inhibited bacterial growth as compared to the drug free control. Typically, bacteria continue to grow at drug concentrations lower than the MIC and don't grow at concentrations at and above the MIC.
(§3) The MIC values described in Tables 2 and 3 below were derived from assays wherein each test compound was evaluated in duplicate. In cases where the duplicate values varied by 0-2-fold, the lower of the two values was reported below. Generally speaking, if the duplicate values varied by more than 2-fold, the assay was considered non-valid and was repeated until the variation between duplicate runs was ≦2-fold. In line with the CLSI guidelines referred to above, both control organisms and reference compounds were utilized in each MIC assay to provide proper quality control. MIC values generated with these control organisms and reference compounds were required to fall within a defined range for the assay to be considered valid and be included herein. Those skilled in the art will recognize that MIC values can and do vary from experiment to experiment. Generally speaking, it should be recognized that MIC values often vary +/−2-fold from experiment to experiment. While a single MIC is reported for each compound and each microorganism, the reader should not conclude that each compound was only tested once. Several of the compounds were subjected to multiple tests. The data reported in Tables 2 and 3 is reflective of the compounds relative activity and different MICs may have been generated on these occasions in line with the guidelines described above.
(§4) The following bacterial strains were used in these MIC determinations:
(4) Pseudomonas aeruginosa UI-18: Wild-type, labeled as PA-7 in Table 5;

For experiment [2], the system named is Escherichia coli EC-1: VOGEL, mouse virulent. Put plainly: MIC determination (CLSI), EC-1. It is filed as cell-based. The note with it: Escherichia coli, read-out: EC-1 (MIC). Here is the method: as §1, §2, §3, §4
(2) Escherichia coli EC-1: VOGEL, mouse virulent labeled as EC-1 in Table 5;

Experiment [3] deals with Acinetobacter baumannii/haemolyticus: Multidrug-resistant clinical isolate (AB-3167). The experiment is described as follows: MIC determination (CLSI), AB-3167. The format is cell-based. The settings on record: Acinetobacter baumannii/haemolyticus multidrug-resistant clinical isolate; overnight incubation; lower of duplicate values; read-out: AB-3167 (MIC). Here is the method:
as §1, §2, §3, §4
(1) Acinetobacter baumannii/haemolyticus: Multidrug-resistant clinical isolate labeled as AB-3167 in Table 5;

For experiment [4], the system named is Klebsiella pneumoniae: Ciprofloxacin-resistant isolate, expresses ESBL, clinical isolate (KP-3700). The experiment is described as follows: MIC determination (CLSI), KP-3700. It is filed as cell-based. The note with it: overnight incubation, lower of duplicate values. Here is the method: as §1, §2, §3, §4
(3) Klebsiella pneumoniae: Ciprofloxacin-resistant isolate, expresses extended-spectrum beta-lactamases (ESBL), clinical isolate, labeled as KP-3700 in Table 5.

The target of experiment [5] is T1, Pseudomonas aeruginosa LpxC enzyme (Pseudomonas aeruginosa, UniProt P47205).
T1 construct: made in house; host or cells: E. coli
T1 sequence (P47205 1-303): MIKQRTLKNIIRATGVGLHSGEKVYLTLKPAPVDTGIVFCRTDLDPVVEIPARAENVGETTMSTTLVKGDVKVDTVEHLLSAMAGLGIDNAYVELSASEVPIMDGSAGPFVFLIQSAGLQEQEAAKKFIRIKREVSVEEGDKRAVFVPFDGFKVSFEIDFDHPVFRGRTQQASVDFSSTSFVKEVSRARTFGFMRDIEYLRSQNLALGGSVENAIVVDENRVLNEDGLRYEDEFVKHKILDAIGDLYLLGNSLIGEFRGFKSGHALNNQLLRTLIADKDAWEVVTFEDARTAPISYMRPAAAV
The experiment is described as follows: IC50 assay, LpxC enzyme from P. aeruginosa (BioTrove RapidFire mass spectrometry). It is filed as biochemical. Here is the method: In order to assess the compounds biological activity, selected in-vitro assays were conducted on selected compounds of Formula I. One of the assays measured the compounds ability to disrupt the synthesis of lipopolysaccharide, LPS, which is a component of the outer membrane of Gram-negative bacteria. Disruption of this synthesis is lethal to the bacteria. The assay determined the compound's ability to inhibit LpxC, which is the first enzyme in the biosynthetic pathway for LPS (measured as IC50). Additionally, MICs (minimal inhibitory concentrations) were determined for several bacteria. The specific protocols are described below:
A) IC50 Assay, LpxC Enzyme from P. Aeruginosa Labeled as PA LpxC Enzyme IC50):
At the end of 1 hour, 5 ul of 1 N HCl was added to stop the enzyme reaction, the plates were centrifuged, and then processed with the BioTrove Rapidfire HTMS Mass Spectrometry System. A no-enzyme control was used in calculating the IC50 values from the percent conversion values.

Where [6] appears, read: P. aeruginosa LpxC enzyme 0.1 nM, 25° C., 1 hour, pH 8.0, read-out: PA: IC50.

Structures are written as SMILES. ≈ marks a conversion by molar mass, not a printed value. Read-outs that look alike come from different tables or passages of the source.

In general, MIC refers to the lowest concentration found to suppress growth. What is called IC50 is the point on the concentration scale where inhibition reaches its midpoint. In the case of `CC(CCn1cc(-c2cccc(-c3cc(N)[nH]n3)c2)cn1)(C(=O)NO)S(C)(=O)=O` (stereo not drawn) [Example 85, 4-{4-[3-(5-amino-1H-pyrazol-3-yl)phenyl]-1H-pyrazol-1-yl}-N-hydroxy-2-methyl-2-(methylsulfonyl)butanamide], the MIC in experiment [1], in experiment [2] and in experiment [3] was greater than 64 µg/mL each time. Also, the “KP-3700 (MIC)” value in experiment [4] was greater than 64.0 µg/mL. In experiment [5] (setting [6]), the IC50 worked out at 58.9 nM.

`COc1ccc(-c2cn(CC[C@](C)(C(=O)NO)S(C)(=O)=O)nn2)c(Cl)c1` [Example 16, (2R)-4-[4-(2-chloro-4-methoxyphenyl)-1H-1,2,3-triazol-1-yl]-N-hydroxy-2-methyl-2-(methylsulfonyl)butanamide]: the results for the MIC in experiment [1], in experiment [2] and in experiment [3] were 8 µg/mL (≈ 19.9 µM), 8 µg/mL (≈ 19.9 µM) and greater than 64 µg/mL, respectively. Also, in experiment [4], the “KP-3700 (MIC)” value was determined as 32 µg/mL. Further, in experiment [5], it took 4.71 nM to reach half-maximal inhibition (IC50).

In the case of `Cc1nn(CC[C@](C)(C(=O)NO)S(C)(=O)=O)cc1-c1ccccc1` [Example 4, (2R)—N-hydroxy-2-methyl-4-(3-methyl-4-phenyl-1H-pyrazol-1-yl)-2-(methylsulfonyl)butanamide], the minimal inhibitory concentration (MIC) in experiment [1] was 8 µg/mL (≈ 22.8 µM); in experiment [2], 8 µg/mL (≈ 22.8 µM); in experiment [3], greater than 64 µg/mL. The “KP-3700 (MIC)” value in experiment [4] came out at 32 µg/mL. The IC50 in experiment [5] (setting [6]) was 14.6 nM.

For `CC(C)COc1ccc(-c2cnn(CCC(C)(C(=O)NO)S(C)(=O)=O)c2)cn1` (stereo not drawn) [Example 81, N-hydroxy-2-methyl-4-{4-[6-(2-methylpropoxy)pyridin-3-yl]-1H-pyrazol-1-yl}-2-(methylsulfonyl)butanamide], the figures for the MIC in experiment [1], in experiment [2] and in experiment [3] were 32 µg/mL (≈ 78 µM), 8 µg/mL (≈ 19.5 µM) and greater than 64 µg/mL, respectively. Also, in experiment [4], the “KP-3700 (MIC)” value turned out to be 32 µg/mL. Moreover, in experiment [5] (setting [6]), the IC50 is 2.07 nM.

As for `C[C@@](CCn1cc(C2CCCCC2)cn1)(C(=O)NO)S(C)(=O)=O` [Example 2, (2R)-4-(4-cyclohexyl-1H-pyrazol-1-yl)-N-hydroxy-2-methyl-2-(methylsulfonyl)butanamide], the MIC in experiment [1] is 1 µg/mL (≈ 2.91 µM); in experiment [2] it was 32 µg/mL (≈ 93.2 µM); in experiment [3] it was greater than 64 µg/mL. The “KP-3700 (MIC)” value in experiment [4] was 64 µg/mL. Moreover, the IC50 in experiment [5] (setting [6]) was found to be 0.752 nM.

Consider `CC(CCn1cc(-c2ccc(Cl)cc2)nn1)(C(=O)NO)S(C)(=O)=O` (stereo not drawn) [Example 26, 4-[4-(4-chlorophenyl)-1H-1,2,3-triazol-1-yl]-N-hydroxy-2-methyl-2-(methylsulfonyl)butanamide], for which the MIC in experiment [1] was 4 µg/mL (≈ 10.7 µM); in experiment [2], 32 µg/mL (≈ 85.8 µM); in experiment [3] it was greater than 64 µg/mL. The “KP-3700 (MIC)” value in experiment [4] turned out to be 32 µg/mL. Also, in experiment [5] (setting [6]), the IC50 stood at 2.87 nM.

As for `CC(CCn1cc(-c2ccc3c(c2)C(=O)CC3)cn1)(C(=O)NO)S(C)(=O)=O` (stereo not drawn) [Example 61, N-hydroxy-2-methyl-2-(methylsulfonyl)-4-[4-(3-oxo-2,3-dihydro-1H-inden-5-yl)-1H-pyrazol-1-yl]butanamide], the MIC in experiment [1], in experiment [2] and in experiment [3] was greater than 64 µg/mL throughout. For the same compound, in experiment [4], the “KP-3700 (MIC)” value was greater than 64.0 µg/mL. Also, the IC50 in experiment [5] (setting [6]) stood at 38.6 nM.

As to `C[C@@](CCn1cc(C#Cc2cccc(C#N)c2)cn1)(C(=O)NO)S(C)(=O)=O` [Example 11, (2R)-4-{4-[(3-cyanophenyl)ethynyl]-1H-pyrazol-1-yl}-N-hydroxy-2-methyl-2-(methylsulfonyl)butanamide], the MIC in experiment [1] was 16 µg/mL (≈ 41.4 µM); in experiment [2], 32 µg/mL (≈ 82.8 µM); in experiment [3], greater than 64 µg/mL. Further, the “KP-3700 (MIC)” value in experiment [4] was found to be 64 µg/mL. For the same compound, the IC50 in experiment [5] (setting [6]) is 12.1 nM.

As for `CC(CCn1cc(-c2ccc3c(c2)CCC3=O)cn1)(C(=O)NO)S(C)(=O)=O` (stereo not drawn) [Example 62, N-hydroxy-2-methyl-2-(methylsulfonyl)-4-[4-(1-oxo-2,3-dihydro-1H-inden-5-yl)-1H-pyrazol-1-yl]butanamide], the MIC in experiment [1] is 16 µg/mL (≈ 40.9 µM); in experiment [2], greater than 64 µg/mL; in experiment [3], greater than 64 µg/mL. Besides, in experiment [4], the “KP-3700 (MIC)” value is greater than 64.0 µg/mL. The IC50 in experiment [5] (setting [6]) was found to be 0.754 nM.

The record behind these values is patent US8809333B2, “Imidazole, pyrazole, and triazole derivatives useful as antibacterial agents” (Pfizer Inc., priority 2011, dated 2014).
